Assay results published in patent publication US20140187559A1, “INHIBITORS OF THE FIBROBLAST GROWTH FACTOR RECEPTOR” (BLUEPRINT MEDICINES CORPORATION, priority 2012, published 2014).

Columns and labels:
Hep3B cells = test: Induction of apoptosis (Caspase-Glo3/7) in Hep3B cells; format: cell-based; details: 6 hours, FIG. 3
Protocol: Hep3B cells were seeded at 20 k/well in 96-well white plates in 200 ul of DMEM/5% FBS overnight. The next day compound was added at a final DMSO concentration of 0.1% and incubated for 6 hours. Caspase activity was measured according to manufacture instruction (Caspase-Glo3/7 Assay (Promega)). Briefly, 100 ul of Caspase-Glo3/7 reagent was added to each well and incubated for 1 hour in the dark. Luminescence was measured using EnVision.

Hep3B xenograft tumors = test: Hep3B liver cancer cell subcutaneous xenograft model, tumor volume; format: in vivo, Mus Musculus
Protocol: […] female nude mice (Mus Musculus) age 6 to 8 weeks were used. Tumor cell culture and inoculation: Hep3B cells were cultured with EMEM medium (Invitrogen, USA) supplemented with 10% FBS (Gibco, Australia). The cells were harvested in 90% confluence, and the viability was no less than 90%. Mice were implanted subcutaneously (s.c.) with 200 μL of 10×10^6 Hep3B cells in 50% Matrigel in the right flank at the beginning of the study.
Animal grouping and dosing schedule: Ten days after cell implantation, when tumors reached an average volume of 199 mm^3, 45 mice were selected based on tumor volume and randomly assigned to 5 treatment groups (n=9). The day of randomization was denoted as D0 and the treatment was started from then on.
(§1) Tumor volume and body weight measurements: Tumor size was measured twice per week in two dimensions using a caliper, and the volume was expressed in mm^3 using the formula: V=0.5 a×b^2 where a and b were the long and short diameters of the tumor, respectively. Body weight was measured at least twice weekly.
End of in vivo portion: Blood, tumors and livers were collected from 3 mice in each treated group at 4, 12 and 24 hours after the last dose. The left lobe of the liver was collected for pharmacodynamic (PD) studies, and the rest of the liver was stored in formalin for histology. The small tumors were prioritized for use in pharmacokinetic studies. Any remaining tumor was fixed for histological analysis first, and then was snap-frozen for the PD study.

wild type FGFR-1 = target: T1, wild type FGFR-1 (Homo sapiens, UniProt P11362); test: FGFR-1 wild type assay at Km (Caliper mobility shift); format: biochemical; details: 400 uM ATP, 25 C, 90 minutes; read-out: FGFR1 IC50
T1 construct: purchased Carna Biosciences, Inc
Protocol: (§2) In order to assess the activity of chemical compounds against the relevant kinase of interest, the Caliper LifeSciences electrophoretic mobility shift technology platform is utilized. Fluorescently labeled substrate peptide is incubated in the presence dosed levels of compounds, a set concentration of kinase and of ATP, so that a reflective proportion of the peptide is phosphorylated. At the end of the reaction, the mix of phosphorylated (product) and non-phosphorylated (substrate) peptides are passed through the microfluidic system of the Caliper LabChip® EZ Reader II, under an applied potential difference. The presence of the phosphate group on the product peptide provides a difference in mass and charge between the product peptide and the substrate peptide, resulting in a separation of the substrate and product pools in the sample. As the pools pass the LEDS within the instrument, these pools are detected and resolved as separate peaks. The ratio between these peaks therefore reflects the activity of the chemical matter at that concentration in that well, under those conditions.
(§3) The reaction was stopped by the addition of 70 ul of Stop buffer (100 mM HEPES pH 7.5, 0.015% Brij 35, 35 mM EDTA and 0.2% of Coating Reagent 3 (Caliper Lifesciences)). The plate was then read on a Caliper EZReader 2 (protocol settings: —1.9 psi, upstream voltage—700, downstream voltage—3000, post sample sip 35 s).

[1] = format: in vivo; details: 100 and 300 mg/kg PO BID, nude mice
Protocol: as §1
Body weight change (%) of Hep3B-bearing nude mice: FIG. 8 is a line graph depicting the body weight change (%) during the entire study period.

wild type FGFR-4 = target: T2, wild type FGFR-4 (Homo sapiens, UniProt P22455); test: FGFR-4 wild type assay at Km (Caliper mobility shift); format: biochemical; details: [IC50 for FGFR1]/[IC50 for FGFR4]
T2 construct: purchased Carna Biosciences, Inc
Protocol: as §2
as §3, with “LabChip® EZ Reader II” for “EZReader 2”

FGFR-4 = FGFR-4 (Homo sapiens, UniProt P22455); test: Crystal structure of compound bound to FGFR-4 (Cys552); format: binding; details: FIG. 4, FIG. 5
Sequence of FGFR-4 (P22455 22-802): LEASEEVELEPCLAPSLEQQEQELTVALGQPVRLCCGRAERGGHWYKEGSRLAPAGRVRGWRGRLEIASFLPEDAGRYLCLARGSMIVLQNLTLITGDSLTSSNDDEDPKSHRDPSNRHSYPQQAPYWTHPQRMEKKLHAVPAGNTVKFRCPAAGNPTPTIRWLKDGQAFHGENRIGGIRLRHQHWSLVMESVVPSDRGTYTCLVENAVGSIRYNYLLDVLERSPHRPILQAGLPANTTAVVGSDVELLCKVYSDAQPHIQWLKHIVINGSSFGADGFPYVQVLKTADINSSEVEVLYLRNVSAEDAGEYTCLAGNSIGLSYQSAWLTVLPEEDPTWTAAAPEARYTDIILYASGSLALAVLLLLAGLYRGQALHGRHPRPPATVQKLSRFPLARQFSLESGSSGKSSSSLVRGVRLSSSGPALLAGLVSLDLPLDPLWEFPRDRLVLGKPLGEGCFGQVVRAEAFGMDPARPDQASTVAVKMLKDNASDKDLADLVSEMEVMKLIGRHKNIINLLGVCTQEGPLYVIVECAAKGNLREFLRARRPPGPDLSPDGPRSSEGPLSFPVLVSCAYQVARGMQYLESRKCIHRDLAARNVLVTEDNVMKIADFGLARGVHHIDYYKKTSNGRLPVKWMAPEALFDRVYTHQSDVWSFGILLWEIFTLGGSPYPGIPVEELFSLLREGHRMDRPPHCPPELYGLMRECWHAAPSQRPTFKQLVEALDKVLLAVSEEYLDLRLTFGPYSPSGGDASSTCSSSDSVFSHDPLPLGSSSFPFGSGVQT

T1 sequence (P11362 22-822): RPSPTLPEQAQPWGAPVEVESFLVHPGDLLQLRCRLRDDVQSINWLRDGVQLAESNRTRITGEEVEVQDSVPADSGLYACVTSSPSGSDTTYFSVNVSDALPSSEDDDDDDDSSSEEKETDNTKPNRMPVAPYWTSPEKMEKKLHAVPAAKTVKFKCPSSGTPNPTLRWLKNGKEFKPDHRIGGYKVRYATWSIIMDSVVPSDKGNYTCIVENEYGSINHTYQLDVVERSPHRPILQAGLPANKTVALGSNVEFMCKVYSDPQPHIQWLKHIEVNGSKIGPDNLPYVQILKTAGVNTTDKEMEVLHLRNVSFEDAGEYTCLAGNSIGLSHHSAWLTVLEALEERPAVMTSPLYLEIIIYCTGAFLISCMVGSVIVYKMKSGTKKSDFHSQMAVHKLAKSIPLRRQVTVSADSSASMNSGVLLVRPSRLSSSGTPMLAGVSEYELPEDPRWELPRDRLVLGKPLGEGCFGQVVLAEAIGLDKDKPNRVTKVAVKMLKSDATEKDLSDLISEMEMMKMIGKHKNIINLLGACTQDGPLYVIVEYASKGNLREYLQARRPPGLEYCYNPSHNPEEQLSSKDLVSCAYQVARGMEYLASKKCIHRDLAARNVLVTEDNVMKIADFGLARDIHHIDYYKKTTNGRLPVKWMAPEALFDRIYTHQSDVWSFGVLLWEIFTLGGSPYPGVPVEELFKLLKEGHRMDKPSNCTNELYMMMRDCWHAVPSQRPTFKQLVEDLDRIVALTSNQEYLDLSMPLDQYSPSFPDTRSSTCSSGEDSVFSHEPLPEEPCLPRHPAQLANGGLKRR
T2 sequence (P22455 22-802): as the sequence (P22455 22-802) above

## CCN1CCN(c2ccc(Nc3cc(N(C)C(=O)Nc4c(Cl)c(OC)cc(OC)c4Cl)ncn3)cc2)CC1 [BGJ398, reference compound]
Hep3B cells
  induction of apoptosis (Caspase activity): induction of apoptosis, although at a higher concentration
Hep3B xenograft tumors; 20 mg/kg PO QD, entire study
  tumor volume compared with vehicle group: significant difference in tumor volume between BGJ398 (20 mg/kg PO QD) and vehicle groups was not observed

## C=CC(=O)Nc1cccc(C)c1Nc1ncc2cc(-c3c(Cl)c(OC)cc(OC)c3Cl)ccc2n1 [COMPOUND 25, N-(2-((6-(2,6-dichloro-3,5-dimethoxyphenyl)quinazolin-2-yl)amino)-3-methylphenyl)acrylamide]
Wild type FGFR-1
  IC50: 100 to 1000 nM
Hep3B cells
  induction of apoptosis (Caspase activity): potent induction of apoptosis
Hep3B xenograft tumors; 100 mg/kg PO BID
  tumor regression: regressed
Hep3B xenograft tumors; 100 mg/kg PO BID, Day 4 to Day 19
  tumor volume compared with vehicle group: Statistically significant reduction of tumor volumes
Hep3B xenograft tumors; 300 mg/kg PO BID
  tumor regression: almost disappeared
Hep3B xenograft tumors; 300 mg/kg PO BID, Day 4 to Day 19
  tumor volume compared with vehicle group: Statistically significant reduction of tumor volumes
[1]
  tolerability (body weight change): well tolerated

## C=CC(=O)N(CCCCN(CC)CC)c1ncc2cc(-c3cc(OC)cc(OC)c3)c(NC(=O)NC(C)(C)C)nc2n1 [COMPOUND 52, N-(7-(3-(tert-butyl)ureido)-6-(3,5-dimethoxyphenyl)pyrido[2,3-d]pyrimidin-2-yl)-N-(4-(diethylamino)butyl)acrylamide]
Wild type FGFR-1
  IC50: 10 to 100 nM
Wild type FGFR-4
  Ratio FGFR1/FGFR4: C (the ratio is ≧100 and <200)
FGFR-4
  binding site in crystal structure: binds to the cysteine at residue 552 of FGFR-4
